Laboratory results: BindingDB's records for doi:10.7270/Q2TX3CTT (Broad Institute, 2010)

Target: Glycogen synthase kinase-3 beta (Homo sapiens, UniProt P49841)
Assay: GSK3beta kinase inhibitor potency, dose response, biochemical, luminescence, cell-free homogeneous, retest (AID 434954)

Sequence of Glycogen synthase kinase-3 beta (P49841 whole entry): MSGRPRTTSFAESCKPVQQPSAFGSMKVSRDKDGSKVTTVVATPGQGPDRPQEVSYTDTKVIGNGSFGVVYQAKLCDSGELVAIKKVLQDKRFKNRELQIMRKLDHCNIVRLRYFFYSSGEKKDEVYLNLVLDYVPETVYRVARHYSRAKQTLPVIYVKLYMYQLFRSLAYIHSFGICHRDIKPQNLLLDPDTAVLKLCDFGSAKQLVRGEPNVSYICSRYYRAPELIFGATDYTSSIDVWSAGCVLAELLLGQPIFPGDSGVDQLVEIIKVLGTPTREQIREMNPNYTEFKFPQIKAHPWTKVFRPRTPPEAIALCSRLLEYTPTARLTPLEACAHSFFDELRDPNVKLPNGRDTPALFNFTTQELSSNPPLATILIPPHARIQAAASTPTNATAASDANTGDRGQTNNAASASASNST

## Cn1ncnc2c(=O)n(C)c(=O)nc1-2
  EC50: 62.7 µM

## CCOC(=O)c1sc(=S)n(-c2ccccc2OC)c1N
  EC50: > 300 µM

## O=C(O)c1ccccc1Nc1ccc([N+](=O)[O-])cc1
  EC50: > 300 µM

## Cc1c(Cl)cccc1Nc1ccccc1C(=O)O
  EC50: > 300 µM

## CN(C)C=NC(=O)C(C#N)C1=Nc2ccccc2CC1 (configuration not stated)
  EC50: 20.1 µM

## Cc1ccc(-c2nn(-c3ccccc3)cc2C=NNC(=O)c2ccc(Br)o2)cc1
  EC50: > 300 µM

## COC(=O)C(CC(C)C)NC(=O)CSc1nc(-c2ccccc2)c(C#N)c(=O)[nH]1 (configuration not stated)
  EC50: > 300 µM

## CCOC(=O)C1C(C)=Nc2ncnn2C1c1cccnc1 (configuration not stated)
  EC50: > 300 µM

## N#CC1=C2SCN(Cc3ccccc3)CN2C(=O)CC1c1cccs1 (configuration not stated)
  EC50: 7.88 µM

## CSc1nc2c(c(=O)[nH]1)C(c1cccs1)C1C(=O)CCCC1=N2 (configuration not stated)
  EC50: > 300 µM

## Nc1nc(Cl)nc2c1ncn2C1OC(CO)C(O)C1O (configuration not stated)
  EC50: > 300 µM

## c1ccc(-c2nc(NCc3cccnc3)c3ccccc3n2)cc1
  EC50: > 300 µM

## Cc1cccc(Nc2ccccc2C(=O)O)c1C
  EC50: > 300 µM

## COc1cccc(C(=O)Nc2nc(C)cs2)c1
  EC50: > 300 µM

## Cc1ccc(SCC(=O)N2CC(C)OC(C)C2)cc1 (configuration not stated)
  EC50: > 300 µM

## O=C(O)COc1ccc2occ(C(=O)c3ccccc3)c2c1
  EC50: 4.3 µM

## CN1CCc2c(sc3c2C(=O)NC(c2cccs2)N3)C1 (configuration not stated)
  EC50: > 300 µM

## Cc1sc2ncnc(N3CCCCC3C)c2c1C (configuration not stated)
  EC50: > 300 µM

## CC1(C)CC(=O)C=C(Nc2ccccn2)C1
  EC50: > 300 µM

## CCc1cc2c(s1)NC(=O)CN=C2c1cccs1
  EC50: 32.7 µM

## CCOc1ccc2nc(NC(=O)CSc3nc4cccnc4n3C)sc2c1
  EC50: 1.25 µM

## COc1ccc(-c2csc(N3CCOCC3)n2)cc1OC
  EC50: > 300 µM

## CC1CCCC(C)N1C(=O)CN1C(=O)C(C)(C)Oc2ccc(C(=O)NC3CCCC3)cc21 (configuration not stated)
  EC50: > 300 µM

## CC1(C)Oc2ccc(C(=O)N3CCOCC3)cc2N(CC(=O)N2CCOCC2)C1=O
  EC50: > 300 µM

## COCCN(CC(=O)NCc1ccc(F)cc1)C(=O)CCC(=O)Nc1ccccn1
  EC50: > 300 µM

## Cn1c(=O)[nH]c(=O)c2c1nc1n2CCCS1
  EC50: > 300 µM

## CCOC(=O)COn1c(=O)c(-c2cccs2)[n+]([O-])c2ccccc21
  EC50: > 300 µM

## COc1ccc(Oc2c(C)oc3c(CN(C)C)c(O)ccc3c2=O)cc1
  EC50: > 300 µM

## CCC(O)CNc1nc(SC)nc2sc3c(c12)CCN(C)C3 (configuration not stated)
  EC50: 1.75 µM

## COCCCn1c(-c2ccc(OC)cc2)nc2nc3ccccc3nc21
  EC50: > 300 µM

## c1ccc2c(c1)oc1c(NCCCn3ccnc3)ncnc12
  EC50: > 300 µM

## CSc1nc(SCC(N)=O)c2c3c(sc2n1)CN(C)CC3
  EC50: 5.08 µM

## COc1ccc(C2CC(=O)C3C(=Nc4ncnn4C3c3ccccc3C)C2)cc1 (configuration not stated)
  EC50: > 300 µM

## COCCOC(=O)C1C(C)=Nc2ncnn2C1c1ccccc1 (configuration not stated)
  EC50: > 300 µM

## Cc1nnc(SCC(=O)N2CCC(C(=O)Nc3nccs3)CC2)n1Cc1ccccc1
  EC50: 36.6 µM

## CCn1c(SCc2ccccc2)nnc1-c1cccs1
  EC50: > 300 µM

## CC(C)(C)C(=O)COC(=O)c1ccc(O)cc1
  EC50: > 300 µM

## COc1ccc(C2c3c(n[nH]c3C)N=C3CC(C)(C)CC(=O)C32)cc1 (configuration not stated)
  EC50: 28.3 µM

## COc1cccc(NC2=CC(=O)CC(C)(C)C2)c1
  EC50: > 300 µM

## Cc1nn(-c2ccccc2)cc1CN=O
  EC50: 71.2 µM

## Cc1oc2c(CN(C)C)c(O)ccc2c(=O)c1-c1cscn1
  EC50: > 300 µM

## Cc1nc2sc(C(c3cccc(F)c3)N3CC(C)OC(C)C3)c(O)n2n1 (configuration not stated)
  EC50: > 300 µM

## CCOC(=O)C(CC)Sc1ncnc2nc[nH]c12 (configuration not stated)
  EC50: > 300 µM

## COc1cc(C2c3c(n(Cc4ccccc4)c(=O)[nH]c3=O)N=C3CC(C)(C)CC(=O)C32)ccc1O (configuration not stated)
  EC50: > 300 µM

## O=C1NC(c2ccncc2)Nc2sc3c(c21)CCCC3 (configuration not stated)
  EC50: > 300 µM

## CCOC(=O)c1nnn(CC(=O)Nc2cccc(OC)c2)c1C(=O)OCC
  EC50: > 300 µM

## CCOC(=O)c1cnc2c(OC)cccc2c1N1CCN(c2ccc(OC)cc2)CC1
  EC50: > 300 µM

## COc1ccc(-c2c(N)nnc3c2[nH]c2ccccc23)cc1OC
  EC50: > 300 µM

## O=C(O)c1cccnc1-c1ncccc1C(=O)O
  EC50: > 300 µM

## CS(=O)(=O)N(CCc1ccccc1)CC(=O)N1CCN(c2ccccc2F)CC1
  EC50: > 300 µM

## CNC(=O)c1cc2cccc(OC)c2oc1=O
  EC50: > 300 µM

## CC1=NC(=O)NC(c2ccc(O)cc2)C1C(=O)OCC1CCCO1 (configuration not stated)
  EC50: > 300 µM

## O=C(CCC1COc2ccccc2O1)NCC1COc2ccccc2O1 (configuration not stated)
  EC50: > 300 µM

## CCOC(=O)C1C(C)=Nc2ncnn2C1c1ccc2c(c1)OCO2 (configuration not stated)
  EC50: > 300 µM

## C=CCNC(=O)c1ccc(OC)cc1OC
  EC50: > 300 µM

## COc1ccc(OCCN(C)Cc2ccccc2)cc1
  EC50: > 300 µM

## CCOC(=O)CSc1nnc(-c2cccs2)n1-c1ccccc1
  EC50: > 300 µM

## O=C(NCCCn1ccnc1)c1ccco1
  EC50: > 300 µM

## CC(O)c1cccc(NC2=CC(=O)CC(C)(C)C2)c1 (configuration not stated)
  EC50: > 300 µM

## Cc1onc(-c2ccccc2)c1C(=O)n1cccn1
  EC50: > 300 µM

## COC(=O)c1nnn(-c2nonc2N)c1CSc1ccc(Cl)cc1
  EC50: 15.9 µM

## COc1ccc(C2CC(=O)N3CN(c4ccc(C)c(Cl)c4)CSC3=C2C#N)cc1 (configuration not stated)
  EC50: > 300 µM

## CCc1ccc(C2CC(c3ccc(C)cc3)Nc3nc(N)nn32)cc1 (configuration not stated)
  EC50: > 300 µM

## COc1ccc(Nc2oc(COc3ccccc3F)nc2C#N)cc1
  EC50: > 300 µM

## CC1=Nc2ncnn2C(c2c[nH]c3ccccc23)C1C(=O)OC(C)C (configuration not stated)
  EC50: 1.81 µM

## CCOC(=O)c1[nH]c(C)c(C(=O)NCc2ccc(OC)cc2)c1C
  EC50: > 300 µM

## Cc1cc(NC(=O)CSc2ccc3nnc(-c4cccs4)n3n2)no1
  EC50: > 300 µM

## CCOC(=O)CSc1ccc2nnc(-c3ccncc3)n2n1
  EC50: 1.9 µM

## COC(=O)CSc1ccc2nnc(-c3ccc(OC)c(OC)c3)n2n1
  EC50: > 300 µM

## CCCCc1cc(=O)oc2cc(OCC(=O)N(CC)CC)ccc12
  EC50: > 300 µM

## COC(=O)COc1ccc2occ(C(C)=O)c2c1
  EC50: > 300 µM

## N#Cc1c2n(c3c(=O)[nH]cnc13)CCCC2
  EC50: 56.4 µM

## CC1=NC(=O)NC(c2ccccc2OC(F)F)C1C(=O)OCc1ccccc1 (configuration not stated)
  EC50: 4.4 µM

## CC1(C)CC(=O)C=C(Nc2ccc(F)cc2F)C1
  EC50: > 300 µM

## CC1(C)CC(=O)C=C(Nc2cc(-c3ccccc3)n[nH]2)C1
  EC50: 12.9 µM

## O=c1oc(-c2cccs2)nc2sc3c(c12)CCCCC3
  EC50: > 300 µM

## CCOC(=O)c1c(-c2ccc(C)o2)csc1N
  EC50: > 300 µM

## O=C(Nc1ccccc1C(=O)O)c1nnc[nH]1
  EC50: > 300 µM

## CCOC(=O)C1C(C)=Nc2ncnn2C1c1cccs1 (configuration not stated)
  EC50: 57.9 µM

## CCn1c(SCC(=O)Nc2ccccc2)nnc1C1CCCCC1
  EC50: > 300 µM

## Cn1c(SCc2nc(-c3ccccc3)no2)nnc1-c1ccco1
  EC50: > 300 µM

## O=C(CSCCc1ccccn1)Nc1ccc(Br)cn1
  EC50: 17.7 µM

## CCCCc1cc(=O)oc2cc(C)cc(O)c12
  EC50: > 300 µM

## CCCCCOC(=O)C1C(C)=Nc2ncnn2C1c1cccs1 (configuration not stated)
  EC50: > 300 µM

## COc1ccccc1C(=O)Oc1ccc(C(C)(C)C)cc1
  EC50: > 300 µM

## CCOC(=O)c1sc(Nc2ccccc2)nc1C
  EC50: > 300 µM

## COc1nc(NCCN2CCOCC2)nc(Nc2ccc([N+](=O)[O-])cc2)n1
  EC50: > 300 µM

## CCOC(=O)c1nnn(-c2nc(OC)nc(N3CCCC3)n2)c1-c1ccccc1
  EC50: > 300 µM

## C=CCOC(=O)C1C(C)=Nc2ncnn2C1c1cccs1 (configuration not stated)
  EC50: > 300 µM

## Nc1ccc(C(=O)Nc2ccccc2C(=O)O)cc1
  EC50: > 300 µM

## C=C1C(c2ccc(OC)cc2)=[N+](O)C(C)=C(C)N1[O-]
  EC50: > 300 µM

## COc1ccc(OC)c(C(O)c2coc3ccc(O)c(CN(C)C)c23)c1 (configuration not stated)
  EC50: > 300 µM

## O=C(c1cccs1)c1coc2ccc(O)cc12
  EC50: 4.73 µM

## COC(=O)c1ccccc1OCCOc1ccccc1C(=O)OC
  EC50: > 300 µM

## CCN(CCNC(=O)CN(C)S(=O)(=O)c1cccc2nsnc12)c1ccccc1
  EC50: > 300 µM

## CSc1nc(SCC(=O)NC(c2ccccc2)c2ccccc2)c2c3c(sc2n1)CN(C)CC3
  EC50: > 300 µM

## Oc1ccc2oc3c(c2c1)CCCC3
  EC50: > 300 µM

## Cc1ccc2nc3c(cc2c1)c(NC(=O)c1ccccn1)nn3CC(C)C
  EC50: > 300 µM

## COc1ccc2occ(C(=O)c3cccs3)c2c1
  EC50: 4.03 µM

## c1csc(C2=Nn3c(nnc3-c3ccncc3)SC2)c1
  EC50: 0.735 µM

## Nc1ncnc(Nc2cccc(C(F)(F)F)c2)n1
  EC50: > 300 µM

## CCCc1cc(=O)[nH]c(SCCOc2ccc(OCC)cc2)n1
  EC50: > 300 µM

## COCCn1c(SCC(=O)NC(=O)NC(C)(C)C)nc2ccccc21
  EC50: > 300 µM

## Cc1cc(Br)ccc1NC(=O)CN1C(=O)CCC1=O
  EC50: > 300 µM

## O=C(NC(Cc1ccccc1)c1ccc2c(c1)OCCCO2)c1ccccc1 (configuration not stated)
  EC50: > 300 µM

## COCCn1c(SCC(=O)Nc2ccc(S(N)(=O)=O)cc2)nc2ccccc21
  EC50: > 300 µM

## Cc1ccccc1-c1nnc(SCCOc2ccc3c(C)cc(=O)oc3c2)o1
  EC50: > 300 µM

## CSc1nc(NCc2ccccc2)c2c3c(sc2n1)CN(C)CC3
  EC50: 23.3 µM

## FC(F)(F)c1ccc(CSc2nccn2-c2ccccc2)cc1
  EC50: > 300 µM

## COc1ccc2c(c1)-c1c(sn(-c3ccc(OC)c(OC)c3)c1=S)C(C)(C)N2
  EC50: > 300 µM

## Clc1ccc(-c2nnc(-c3ccccc3)c(N3CCSCC3)n2)cc1
  EC50: > 300 µM

## CC[n+]1c(CC=Nc2ccccc2)sc2ccccc21
  EC50: > 300 µM

## CCNc1nc(N)c(C(=C(C#N)C#N)c2ccccc2)s1
  EC50: > 300 µM

## C=CCN1C(=O)C(Cc2ccc(Br)cc2)SC1=NN=Cc1ccco1 (configuration not stated)
  EC50: > 300 µM

## O=C(O)c1ccccc1N=NCc1ccnc2ccccc12
  EC50: > 300 µM

## COc1ccc(-n2sc3c(c2=S)-c2cc(OC)ccc2NC3(C)C)cc1
  EC50: > 300 µM

## O=NCc1ccc(SCc2ccccc2Cl)c([N+](=O)[O-])c1
  EC50: > 300 µM

## COc1cccc(-n2sc3c(c2=S)-c2cc(OC)ccc2NC3(C)C)c1
  EC50: > 300 µM

## COc1ccc(-c2nn(-c3ccccc3)cc2C=NNS(=O)(=O)c2ccccc2)cc1
  EC50: > 300 µM

## O=[N+]([O-])c1cc([N+](=O)[O-])c(N2CCCCCC2)cc1NCCO
  EC50: 5.63 µM

## CC(=O)Nc1ccccc1C(=O)OCc1ccc(C(=O)c2ccccc2)cc1
  EC50: > 300 µM

## Cc1ccc(SCCc2ccc(C)nc2)cc1
  EC50: > 300 µM

## Oc1ccc(CN=Nc2ncc(Br)cn2)c(O)c1
  EC50: 12.3 µM

## CC[n+]1c(/C=C/N(C)c2ccccc2)oc2ccc(F)cc21
  EC50: > 300 µM

## COc1ccc2c(c1)-c1c(sn(-c3ccccc3)c1=S)C(C)(C)N2
  EC50: > 300 µM

## CCC(=NNC(=O)CSCc1ccccc1Cl)c1ccc2c(c1)OCCO2
  EC50: > 300 µM

## c1ccc(CSc2nnc(-c3ccncc3)o2)cc1
  EC50: 5.14 µM
